Drawing on the NIST ThermoML archive (doi:10.1021/je1007235), this text covers viscosity for 17 compounds.

A word on the viscosity: it is the resistance of a fluid to flow.

Each structure is given as a SMILES string. ± gives the expanded uncertainty stated by the source.

For data set [1] the following is noted: 101.33 kPa, Liquid.
A short description of data set [2]: wn = mass fraction of the nth substance listed. The settings on record: 298.15 K, 101.3 kPa, Liquid.

Turning to `CCCCCCn1cc[n+](C)c1.[Cl-]` [1-hexyl-3-methylimidazolium chloride], the viscosity in data set [1] (353.15 K) is recorded as 293 ± 57 mPa·s; in data set [1] (373.1 K), 87 ± 6 mPa·s; in data set [1] (393.15 K), 43 ± 3 mPa·s.

On to `CC#N` [acetonitrile] + CC(=O)[O-].CCCCn1cc[n+](C)c1, for which the viscosity in data set [2] (w1 = 1) is 0.34 mPa·s.

`CCn1cc[n+](C)c1.[Cl-]` [1-ethyl-3-methylimidazolium chloride]: the viscosity in data set [1] (353.15 K) is 65 ± 3 mPa·s; in data set [1] (373.1 K), 27 ± 2 mPa·s; in data set [1] (393.15 K) it was 13 ± 2 mPa·s.

Take `CC(=O)[O-].CCn1cc[n+](C)c1` [1-ethyl-3-methylimidazolium acetate]: the viscosity is on record as 162 ± 21 mPa·s in data set [1] (298.15 K), 17 ± 2 mPa·s in data set [1] (353.15 K), 9 ± 2 mPa·s in data set [1] (373.1 K) and 5 ± 2 mPa·s in data set [1] (393.15 K).

For `CC(=O)[O-].CCCCn1cc[n+](C)c1` [1-butyl-3-methylimidazolium acetate] + CN(C)C=O, the viscosity in data set [2] (w2 = 0.062) is recorded as 231 ± 40 mPa·s; in data set [2] (w2 = 0.191), 54 ± 3 mPa·s; in data set [2] (w2 = 0.389), 11 ± 2 mPa·s; in data set [2] (w2 = 0.606), 4 mPa·s.

For `CC(=O)[O-].CCCCn1cc[n+](C)c1` [1-butyl-3-methylimidazolium acetate] + O, the viscosity is 383 ± 88 mPa·s in data set [2] (w2 = 0.029); 341 ± 74 mPa·s in data set [2] (w2 = 0.031); 236 ± 41 mPa·s in data set [2] (w2 = 0.048); 18 ± 2 mPa·s in data set [2] (w2 = 0.512); 5 ± 2 mPa·s in data set [2] (w2 = 0.731).

With `O` [water] + CC(=O)[O-].CCCCn1cc[n+](C)c1, in data set [2] (w1 = 1), the viscosity is on record as 0.89 mPa·s.

In the case of `CC(=O)[O-].CCCCn1cc[n+](C)c1` [1-butyl-3-methylimidazolium acetate] + CC#N, the viscosity in data set [2] (w2 = 0.089) amounted to 148 ± 19 mPa·s; in data set [2] (w2 = 0.213), 27 ± 2 mPa·s; in data set [2] (w2 = 0.389) it was 5 ± 2 mPa·s; in data set [2] (w2 = 0.593), 2 mPa·s.

With `OCCO` [1,2-ethanediol] + CC(=O)[O-].CCCCn1cc[n+](C)c1, the viscosity in data set [2] (w1 = 1) amounted to 16.1 ± 2 mPa·s.

On to `CCCCn1cc[n+](C)c1.[Cl-]` [1-butyl-3-methylimidazolium chloride], for which the viscosity stood at 142 ± 17 mPa·s in data set [1] (353.15 K), 68 ± 3 mPa·s in data set [1] (373.1 K) and 31 ± 2 mPa·s in data set [1] (393.15 K).

For `CC(=O)[O-].CCn1cc[n+](C)c1` [1-ethyl-3-methylimidazolium acetate] + O, the viscosity in data set [2] (w2 = 0.023) was 122 ± 13 mPa·s; in data set [2] (w2 = 0.045), 81 ± 5 mPa·s; in data set [2] (w2 = 0.084), 57 ± 3 mPa·s; in data set [2] (w2 = 0.192) it was 32 ± 2 mPa·s; in data set [2] (w2 = 0.374), 12 ± 2 mPa·s; in data set [2] (w2 = 0.556), 4 mPa·s.

Regarding `O` [water] + CC(=O)[O-].CCn1cc[n+](C)c1, the viscosity in data set [2] (w1 = 1) was found to be 0.89 mPa·s.

Turning to `CCCCCCCC[n+]1ccn(C)c1.[Cl-]` [1-methyl-3-octylimidazolium chloride], the viscosity in data set [1] (353.15 K) was found to be 375 ± 82 mPa·s; in data set [1] (373.1 K), 161 ± 21 mPa·s; in data set [1] (393.15 K), 81 ± 5 mPa·s.

On to `CC(=O)[O-].CCCCn1cc[n+](C)c1` [1-butyl-3-methylimidazolium acetate], for which the viscosity in data set [1] (298.15 K) is on record as 383 ± 85 mPa·s; in data set [1] (353.15 K) it was 26 ± 2 mPa·s; in data set [1] (373.1 K), 15 ± 2 mPa·s; in data set [1] (393.15 K) it was 9 ± 2 mPa·s.

As for `CN(C)C=O` [dimethylformamide] + CC(=O)[O-].CCCCn1cc[n+](C)c1, in data set [2] (w1 = 1), the viscosity was found to be 0.92 mPa·s.

For the compound `CC(=O)[O-].CCCCn1cc[n+](C)c1` [1-butyl-3-methylimidazolium acetate] + OCCO, the viscosity in data set [2] (w2 = 0.081) was 291 ± 58 mPa·s; in data set [2] (w2 = 0.248) it was 102 ± 9 mPa·s; in data set [2] (w2 = 0.464), 39 ± 2 mPa·s; in data set [2] (w2 = 0.678), 26 ± 2 mPa·s.

As to `CCCCn1cc[n+](C)c1.N#CN=C=[N-]` [1-butyl-3-methylimidazolium dicyanamide], the viscosity in data set [1] (298.15 K) is given as 31 ± 2 mPa·s; in data set [1] (353.15 K), 11 ± 2 mPa·s; in data set [1] (373.1 K), 6 ± 2 mPa·s; in data set [1] (393.15 K) it was 4 mPa·s.
